# Measurements: US20250275975A1, “Methods of Treating Neuropathies” (Athira Pharma, Inc., priority 2023, published 2025)
# Assays:
# [1] = tested on: neuron-Schwann cell co-cultures; experiment: Sensory neurite extension and myelination in healthy primary dorsal root ganglia cultures; assay type: cell-based, rat; design: key to Significant promotion of Neurite Network Extension of Sensory Neurons / Significant promotion of Myelination of Sensory neurons by Schwann Cells: “NS” indicates the treatment did not have a significant effect; “+” indicates the treatment had a significant effect; conditions: for Significant promotion of Myelination of Sensory neurons by Schwann Cells / Significant promotion of Neurite Network Extension of Sensory Neurons: Healthy cultures, vs vehicle
# Method: (§1) To assess the effects of test compound treatment on these structures central to neuropathic pathology, peripheral sensory neurons were modeled using dissociated primary cultures of neurons and Schwann cells collected from fetal rats. Fetal rats were collected from pregnant females after 15 days of gestation, and the dorsal root ganglion was dissociated via trypsin digestion and mechanical disruption. The resulting cells were plated and allowed to grow for 7 days. On day 7 in culture, ascorbic acid at a concentration of 50 μM was added to the culture to promote myelination of sensory neurons by Schwann cells.
# To model the effects of Compound 5a in the normal peripheral nervous system, neuron-Schwann cell co-cultures were treated with Compound 5a in combination with low doses of recombinant hepatocyte growth factor (HGF). On day 8 in culture, experimental treatments were added to culture media. These treatments included HGF with or without Compound 5a. Some cultures were treated with the steroid hormone B-estradiol to serve as a positive control. Treatments were applied every other day, and on day 21 in culture the cultures were fixed with ethanol and processed for immunodetection of both microtubule-associate protein 2 (MAP2) to reveal neurons and their neurites as well as myelin-associated glycoprotein (MAG) to reveal Schwann cells and the extent of their myelination of cultured neurites. Cells were counterstained with Hoechst DNA dye to identify individual cells.
# (§2) 30 fluorescent images were captured for each treatment group and images were quantified by automated image analysis. Neurite network extension was quantified as the total length of MAP2-positive neurites per cell measured in μm. Myelination by Schwann cells was quantified by the area of overlap between MAP2-positive neurites and MAG-positive myelin wrapping measured in μm^2. Statistical analysis was performed as a one-way ANOVA with Fisher's LSD post-test against either vehicle- or Cisplatin-treated groups respectively.
# STZ DNP rats [2] = experiment: Mechanical allodynia rescue assay (Von Frey paw withdrawal threshold), Example B1; assay type: in vivo, Sprague Dawley rats; design: key to Efficacy: rescue of mechanical allodynia behavior as measured by paw withdrawal threshold: NS indicates treatment did not significantly affect paw withdrawal threshold vs disease control.; + indicates p < 0.05 vs disease control.; ++ indicates p < 0.01 vs disease control.; +++ indicates p < 0.001 vs disease control; conditions: for Efficacy: rescue of mechanical allodynia behavior as measured by paw withdrawal threshold: study day 28 after 14 days of treatment, p vs disease control
# Excerpt: Hyperglycemic rats consistently develop neuropathic pain-associated behaviors including mechanical allodynia. Allodynia refers to a type of neuropathic pain characterized by increased sensitivity to stimuli that are not normally painful. Mechanical allodynia is quantified in rats by determination of the force required to induce a withdrawal of the paw and is negatively associated with allodynia such that, the lower the force required to induce paw withdrawal, the greater the pain behavior.
# (§3) A series of studies were performed to determine the ability of HGF/MET positive modulator compounds to reduce the mechanical allodynia pain behaviors in hyperglycemic rats. A single dose of STZ (55 mg/kg via intravenous (IV)) was administered to induce a Type I diabetic hyperglycemia in male Sprague Dawley rats. Hyperglycemia was confirmed 4 days after STZ administration, with blood glucose levels above 200 mg/dL considered successful model induction. 14 days after disease induction, test compound treatment was initiated and continued as daily compound administration over the remaining course of the study. Route and dose for each compound were determined by pharmacokinetic and distribution modelling. Control groups included animals with no diabetic induction (Sham control), animals with diabetes but treated only with formulation vehicle (DNP (diabetic peripheral neuropathy) control), and disease animals treated with pregabalin (30 mg/kg via PO), which is known to reduce neuropathic pain behaviors.
# (§4) Changes to neuropathic pain behaviors were assessed after 14 days of compound treatment on study day 28. Mechanical allodynia was tested by placing each animal on an elevated wire grid and stimulating the plantar surface of the right rear paw with a series of filaments corresponding to increasing orders of force, reaching a maximum force of 60 grams (Aesthesio manual Von Frey filaments). The force of the filament that causes paw withdrawal was considered the paw withdrawal threshold in grams. Pain sensitivity in response to thermal hyperalgesia was determined by using hot plate method and represented as paw withdrawal latency (PWL). Rats were placed on the hot plate (52.5° C.), and the time taken to show the nocifensive behavior (either licking or jumping) of any of their paws was recorded. Statistical comparison of treatment groups to DNP control groups was performed by one-way ANOVA followed by Dunnett's multiple comparisons test.
# STZ DNP rats [3] = experiment: Thermal hyperalgesia rescue assay (hot plate paw withdrawal latency), Example B1; assay type: in vivo, Sprague Dawley rats; design: key to Efficacy: rescue of thermal hyperalgesia behavior as measured by paw withdrawal latency: NS indicates treatment did not significantly affect paw withdrawal latency vs disease control.; + indicates p < 0.05 vs disease control.; ++ indicates p < 0.01 vs disease control.; +++ indicates p < 0.001 vs disease control; conditions: for Efficacy: rescue of thermal hyperalgesia behavior as measured by paw withdrawal latency: study day 28 after 14 days of treatment, hot plate 52.5° C., p vs disease control
# Method: as §3, §4
# [4] = tested on: neuron-Schwann cell co-cultures injured with cisplatin; experiment: Sensory neurite extension and myelination in cisplatin-injured primary dorsal root ganglia cultures; assay type: cell-based, rat; design: key to Significant promotion of Neurite Network Extension of Sensory Neurons / Significant promotion of Myelination of Sensory neurons by Schwann Cells: “NS” indicates the treatment did not have a significant effect; “+” indicates the treatment had a significant effect; conditions: for Significant promotion of Myelination of Sensory neurons by Schwann Cells / Significant promotion of Neurite Network Extension of Sensory Neurons: +Cisplatin injury (10 μg/ml, 24 hours), vs Cisplatin-treated group
# Method: as §1
# To model the effects of neuropathic injury in sensory neurons and associated Schwann cells, cultures were injured with the chemotherapy drug cisplatin. These cultures were prepared identically to those described above. In this system, Compound 5a, HGF, and β-estradiol treatments began on culture day 19. Also on culture day 19, cisplatin (10 μg/ml) was added to the cultures for 24 hours. On culture day 20, cisplatin was removed from the media while test compound treatments were replaced for 24 hours. On day 21 in culture, cells were fixed and processed for immunodetection as described above.
# as §2
# [5] = Compound 5a 0.1 μM with HGF 0.05 ng/ml
# [6] = Compound 5a 0.5 μM with HGF 0.05 ng/ml
# [7] = Compound 5a 1 μM with HGF 0.05 ng/ml
# [8] = healthy cultures, 0.5 μM Compound 5a with HGF (0.05 ng/ml)
# [9] = injured cultures, Compound 5a at 0.1, 0.5, and 1 μM with HGF (0.05 ng/ml)
compound,measurement,setting,value
CCC(C)CN1CC2N(Cc3ccc(C(F)(F)F)cc3)CCC(=O)N2[C@@H](C)C1=O (stereo partly shown) [Compound 5a],Significant promotion of Myelination of Sensory neurons by Schwann Cells,[1]; [5],+
same,Significant promotion of Neurite Network Extension of Sensory Neurons,[1]; [5],NS
same,Significant promotion of Myelination of Sensory neurons by Schwann Cells,[1]; [6],+
same,Significant promotion of Neurite Network Extension of Sensory Neurons,[1]; [6],+
same,Significant promotion of Myelination of Sensory neurons by Schwann Cells,[1]; [7],NS
same,Significant promotion of Neurite Network Extension of Sensory Neurons,[1]; [7],NS
same,myelination,[1]; [8],significant promotion
same,neurite network extension,[1]; [8],significant promotion
same,Efficacy: rescue of mechanical allodynia behavior as measured by paw withdrawal threshold,STZ DNP rats [2]; 0.003 mg/kg IV daily,NS
same,Efficacy: rescue of mechanical allodynia behavior as measured by paw withdrawal threshold,STZ DNP rats [2]; 0.015 mg/kg IV daily,NS
same,Efficacy: rescue of mechanical allodynia behavior as measured by paw withdrawal threshold,STZ DNP rats [2]; 0.075 mg/kg IV daily,NS
same,Efficacy: rescue of mechanical allodynia behavior as measured by paw withdrawal threshold,STZ DNP rats [2]; 0.375 mg/kg IV daily,++ (++ indicates p < 0.01 vs disease control.)
same,Efficacy: rescue of mechanical allodynia behavior as measured by paw withdrawal threshold,STZ DNP rats [2]; 1 mg/kg PO daily,++ (++ indicates p < 0.01 vs disease control.)
same,Efficacy: rescue of mechanical allodynia behavior as measured by paw withdrawal threshold,STZ DNP rats [2]; 2 mg/kg PO daily,+++ (+++ indicates p < 0.001 vs disease control.)
same,Efficacy: rescue of mechanical allodynia behavior as measured by paw withdrawal threshold,STZ DNP rats [2]; 10 mg/kg PO daily,+++ (+++ indicates p < 0.001 vs disease control.)
same,Efficacy: rescue of mechanical allodynia behavior as measured by paw withdrawal threshold,STZ DNP rats [2]; 20 mg/kg PO daily,+++ (+++ indicates p < 0.001 vs disease control.)
same,rescue of the mechanical allodynia behavior as measured by paw withdrawal threshold,STZ DNP rats [2]; STZ DNP rats,significant rescue
same,Efficacy: rescue of thermal hyperalgesia behavior as measured by paw withdrawal latency,STZ DNP rats [3]; 0.003 mg/kg IV daily,+ (+ indicates p < 0.05 vs disease control.)
same,Efficacy: rescue of thermal hyperalgesia behavior as measured by paw withdrawal latency,STZ DNP rats [3]; 0.015 mg/kg IV daily,NS
same,Efficacy: rescue of thermal hyperalgesia behavior as measured by paw withdrawal latency,STZ DNP rats [3]; 0.075 mg/kg IV daily,+ (+ indicates p < 0.05 vs disease control.)
same,Efficacy: rescue of thermal hyperalgesia behavior as measured by paw withdrawal latency,STZ DNP rats [3]; 0.375 mg/kg IV daily,++ (++ indicates p < 0.01 vs disease control.)
same,Efficacy: rescue of thermal hyperalgesia behavior as measured by paw withdrawal latency,STZ DNP rats [3]; 1 mg/kg PO daily,NS
same,Efficacy: rescue of thermal hyperalgesia behavior as measured by paw withdrawal latency,STZ DNP rats [3]; 2 mg/kg PO daily,+ (+ indicates p < 0.05 vs disease control.)
same,Efficacy: rescue of thermal hyperalgesia behavior as measured by paw withdrawal latency,STZ DNP rats [3]; 10 mg/kg PO daily,+++ (+++ indicates p < 0.001 vs disease control.)
same,Efficacy: rescue of thermal hyperalgesia behavior as measured by paw withdrawal latency,STZ DNP rats [3]; 20 mg/kg PO daily,+++ (+++ indicates p < 0.001 vs disease control.)
same,rescue of thermal allodynia behavior as measured by paw withdrawal latency,STZ DNP rats [3]; STZ DNP rats,significant rescue
same,Significant promotion of Myelination of Sensory neurons by Schwann Cells,[4]; [5],+
same,Significant promotion of Neurite Network Extension of Sensory Neurons,[4]; [5],+
same,Significant promotion of Myelination of Sensory neurons by Schwann Cells,[4]; [6],+
same,Significant promotion of Neurite Network Extension of Sensory Neurons,[4]; [6],+
same,Significant promotion of Myelination of Sensory neurons by Schwann Cells,[4]; [7],+
same,Significant promotion of Neurite Network Extension of Sensory Neurons,[4]; [7],+
same,myelination,[4]; [9],significantly promoted
same,neurite network extension,[4]; [9],significantly promoted
